Data on one molecule can be found in patent publication US12171821B2, “Toxoplasma gondii vaccine” (priority 2018, dated 2024).

“And” between values parts separate entries of the source, which are not always exact repeats. Equal entries are not always repeated. “Also recorded” adds a separate entry of the source.

In assay [1] the test system is T. gondii ME49 bradyzoites. As to the kind of experiment: qPCR of SAG1, GRA11B, TUB1A on cDNA of infected cat intestinal monolayers. The assay is classed as cell-based, Toxoplasma gondii. On the procedure: FIGS. 6A-B. Quantification of merozoites in cat tissue culture. A) Cat intestinal organoids were disassociated by trypsin then grown as monolayers on glass slides. Slides were divided into three different groups: not supplemented with fatty acid, supplemented with 200 μM oleic acid or supplemented 200 μM linoleic acid. Monolayers were infected with T. gondii MEM bradyzoites purified from brains of chronic infected mice at a 1:10 MOI. Five days after infection, staining for GRA11B and BRP1 along with DAPI, allowed the percentage of vacuoles positive for GRA11B and BRP1out of the total vacuoles was determined. Total number of parasitophorous vacuoles were counted by positive DAPI staining and confirmed by morphology with DIC. At least 50 parasitophorous vacuoles were counted per replicate. Three biological replicates were counted and on average 35% of the total vacuoles were positive far both GRA11B and BRP1 in the linoleic acid supplemented monolayers. *p-value=0.0126 with N=3 by two-tailed unpaired t test. Straining for both BRP1 and GRA11B was used to ensure that merozoite stages were counted. […] BRP1 is a rhoptry protein that was initially found in bradyzoites; however, it is also expressed in merozoite. B) Cat intestinal monolayers were grown as described in panel A, except monolayers were quenched by TRIzol 5 days post-infection, RNA was extracted, and cDNA was synthesized using an oligo (dT) primer to amplify mRNA, Expression of SAG1 and GRA11B were quantified by qPCR and the fold change calculated in comparison with uninfected cells. TUB1A was used to normalize gene expression across samples.
Real-time PCR on ileum cDNA. Z-DNA binding protein deletion mice ice with and without delta-6-desaturase inhibitor treatment were euthanized 7 days post infection. The ileum of each mouse was removed and homogenized in 1 mL of TRIzol. Total RNA was isolated according to manufacturer's protocol (Invitrogen) and treated with amplification grade Dnase I. cDNA was generated using the Invitrogen SuperScript III First-Strand Synthesis kit with random hexamer primers. GRA11B and SAG1 were used as markers of sexual and asexual stages, respectively. The T. gondii housekeeping gene TUB1A was used to normalize target gene expression. Real-time quantitative PCR was performed using Bio-Rad iTaq Universal SYBR Green Supermix on 311 an Applied Biosystems StepOnePlus Real-Time PCR system. The efficiency of each primer set was calculated from the slope of a 1:10 dilution standard curve of tachyzoite gDNA, where E=10^(−1/slope). The Pfaffl method (Pfaffl, 2001), which accounts for differences in efficiencies, was then used to calculate the relative gene expression of GRA11B and SAG1 per sample, in triplicate. Only wells with one melt curve temperature were used, indicating a single product. Primer sequences were as follows: […]
In general terms: Real-time PCR tracks product formation cycle by cycle.

Assay [2] concerns T. gondii ME49 bradyzoites. Nature of the assay: Gametes and intracellular oocyst walls (AO2, 3G4, PCR) in infected cat intestinal monolayers. The assay is classed as cell-based, Toxoplasma gondii. As for the experimental part: FIGS. 7A-H. Identification of gametes and intracellular oocysts in cat tissue culture. Cat intestinal organoids were disassociated by trypsin then grown as monolayers on glass slides. […] After 7 days, monolayers were incubated with mouse anti-AO2 (panels A-C) or mouse monoclonal IgM 3G4 (panels E-G), The amiloride-sensitive amine oxidase, copper-containing protein 2 (AO2) is an enzyme exclusively expressed in macrogametes and early oocysts and has a possible role in oocyst wall biogenesis. […] 3G4 is a mouse monoclonal antibody produced by immunizing mice with purified oocyst walls, thus it is a marker of oocyst wall biogenesis. Only monolayers supplemented with linoleic acid (G) had positive 3G4 vacuoles. All panels are 20 μm square with a 5 μm white size bar in the lower right corner. D) Markers for macrogamete and microgamete expression were also evaluated by PCR. Cat intestinal monolayers were grown in 24-well plates until confluency and then infected with T. gondii bradyzoites in duplicate using the same conditions as above. 7 days post-infection, RNA was extracted with TRIzol and cDNA was synthesized using an oligo (dT) primer to only amplify mRNA. AO2 was again used as a marker for macrogametes and the expected PCR product is 218 bp. To assess microgamete presence, we selected the gene TgME49_306338, which is overexpressed in the gametes stage, corresponded to day 7 post-infection in cats and has 44% identity to a protein expressed in the flagella of the motile green algae Chlamydomonas reinhardtii. The expected PCR product for TgME49_306338 is 160 bp. TUB1A was used as an input control and results in a 172 bp product. NO RT corresponds to a cDNA synthesis reaction without the addition of reverse transcriptase (RI) as a control for genomic DNA contamination. Equivalent amounts of cDNA per sample were used as a template for each PCR reaction, and the products were separated on an acrylamide gel. […] H) The number of positive oocyst walls stained with 3G4 were quantified. […] The number of positive oocyst walls were counted in each slide and divided by the area of slide in cm^2.
Immunofluorescence. Intestinal organoid monolayers or mouse fecal samples were fixed in 3.7% formaldehyde in PBS for 20 minutes, permeabilized with 0.2% triton X-100 (Sigma) in PBS at room temperature for one hour and then blocked with 3% BSA in PBS at room temperature for one hour. Primary antibody was incubated at 4° C. overnight in 0.2% v/v Triton x-100 and 3% BSA in PBS (1:100 mouse anti-GRA11B, 1:100 rabbit anti-BRP1, 1:100 mouse anti-AO2, 1:50 monoclonal mouse anti-ZO1 (Santa Cruz) or 1:25 mouse 288 IgM anti-oocyst wall 3G4. Sporulated oocysts from mouse feces were dried onto slides, fixed and permeabilized with ice cold acetone for 30 minutes and incubated with 1:20 mouse 4B6 to the visualize the sporocyst. Slides were incubated one hour with the specific secondary antibody (1:500 goat anti-rabbit Alexa Fluor 488 and 1:500 goat anti-mouse Alexa Fluor 594) at room temperature for one hour and then washed 3 times with PBS. Cells nuclei were stained with 10 μM DAPI (Sigma). Slides were mounted in Vectashield antifade mounting medium (VectorLabs). Samples were imaged on Zeiss Axioplan III equipped with a triple-pass (DAPI/fluorescein isothiocyanate [FITC]/Texas Red) emission cube, differential interference contrast optics, and a monochromatic Axiocam camera operated by Zen software (Zeiss) and processed using ImageJ (Fiji packet).
PCR of cat intestinal monolayers. […]

The mark [3] stands for this setting: cat intestinal monolayers cDNA, biological replicates 1 and 2.
Setting [4] is: cat intestinal monolayers cDNA, biological replicates 1 and 2, wells 1-3.

Take `CCCCC/C=C\C/C=C\CCCCCCCC(=O)O` [linoleic acid]: in assay [1] (setting [3]), the “GRA11B Ct mean” value is 26.44 and 27.75; the “SAG1 Ct mean” value was 19.15 and 19.99. In assay [1] (setting [4]), the “GRA11B raw Ct values” is 26.53 and 27.67 and 26.34 and 27.82 and 26.44 and 27.77; the “SAG1 raw Ct values” was 19.09 and 20.09 and 19.19 and 19.93 and 19.16 and 19.95. In addition, the “GRA11B expression by qPCR (fold change versus uninfected cells, normalized to TUB1A)” value in assay [1] (cat intestinal monolayers, 200 μM, 5 days post-infection) is reported as “significantly more abundant”. The oocyst wall production entry in assay [2] (cat cells, 20 μM linoleic acid) is on record as “did not enhance oocyst wall production”. In assay [2] (cat intestinal monolayers, 200 μM fatty acid, 7 days of infection), the “macrogamete protein AO2 by immunofluorescence” value is recorded as “round structures were seen with reactivity to the macrogamete protein AO210; also recorded: only detected by immunofluorescence in the monolayers supplemented with linoleic acid”. The “AO2 and TgME49_306338 expression by PCR (bands with the correct size)” value in assay [2] (cat intestinal monolayers, 200 μM, 7 days post-infection) is listed as “only observed in linoleic acid supplemented monolayers”. Besides, in assay [2] (cultured cat cells, 200 μM fatty acid, 7 days of infection), the “number of positive oocyst walls stained with 3G4” value was “approximately 9 oocyst walls per cm^2”.
